The results in this text go back to patent US12577559B2, “Method for creating a cDNA sequencing library” (priority 2019, dated 2026).

This experiment deals with A549 cell line. The experiment can be described thus: RIF-Seq gene expression screen of compounds in A549 cells, 384 well plate. In kind it is cell-based. The method, then:
To evaluate if RIF-Seq can be used to detect changes in gene expression due to action of compounds (drugs) and if gene expression signatures can be used to predict mechanism of action of the compound, the inventors performed screen of two compounds in various concentration (delivered to cells in DMSO) and controls (DMSO alone) in high throughput fashion on automated platforms. A549 cell line was seeded using automatic cell dispenser onto low volume imaging plate to concentration of 2 000 cell per well. After over-night incubation, drugs were manually added to cells according to schematics presented in the FIG. 16A, cells were fixated and RIF-Seq protocol was executed using automated robotic liquid handlers. […] Using Gene Set Enrichment Analysis (GESA) inventors compared the differential gene expression data of samples treated with 8.3 μM vorinostat and controls and which differently expressed genes are annotated to pre-defined gene sets contained in the Broad Institute “Hallmarks” list (FIG. 16D).
Cells were cultured in T25 and T75 cell culturing flasks at 37° C. under 5% CO2 in RPMI1640 medium (HeLa, BjHTERT, MCF-7) or F12K medium (A549) with 10% complete fetal bovine serum (FBS), penicillin-streptomycin, and glutamine, up to 80% confluency. Before seeding cells into plates, cells were washed with PBS and dislodged using Tripsin-EDTA and resuspended in fresh medium to a concentration of 66 cells/μL. Manually (100 μL volume, 96 well plate) or by using automatic cell dispenser (30 μL volume, 384 well plate) cells were transferred into desired vessels and incubated over-night. For 96 well plates, the cell culture media were removed and plate was washed twice with 100 μl cold PBS in each well. Then 100 μl 3.7% PFA solution was added to each well and incubated at room temperature for 15 min. For 384 well plates, […] of freshly prepared 16% formaldehyde was added to 30 μl of cell media to obtain a final formaldehyde concentration of 3.7%. Fixation was performed for 20 minutes at room temperature. […]

On to `O=C(CCCCCCC(=O)Nc1ccccc1)NO` [vorinostat], for which, for the setting “8.3 μM concentration vs DMSO controls”, the “Volcano plot of genes over- and under-expressed upon treatment” value is reported as “number of genes with significantly altered expression”. Under “8.3 μM vorinostat vs DMSO controls”, the “Gene Set Enrichment Analysis (GESA) of differential gene expression against Broad Institute "Hallmarks" gene sets” value is “down-regulation of the cell cycle and p53 pathways, E2F targets, cell cycle checkpoints and MYC targets”. For the same compound, the “PCA analyses of gene expression of compound-grouped samples vs DMSO controls” value (various concentrations) is listed as “Gradient of differences”.
